According to a melting point compilation (Tetko et al.; mined from patent text by program, amines drawn as free bases though some values may be those of a salt):

melting point [°C]	SMILES
136	CON=C(C(C)=NN=Cc1ccccc1C(=NOC)C1=NOCCO1)c1ccccc1
88 to 93	CCOC(=O)C(C#N)=C(SC)N1CCc2ccccc2CC1
228 to 230	COc1cc(Cc2cnc(N)nc2N)c2ccccc2c1OC
82 to 83	CCC(=O)OCC1(COC(=O)CC)c2ccccc2-c2ccccc21
121	Cc1ccc(C(=O)c2cc([N+](=O)[O-])ccc2Cl)cc1
182	O=C(NCCc1ccccn1)Nc1ccccc1[N+](=O)[O-]
80 to 85	COC(=O)c1ccc(CNC(=O)[C@@H]2Cc3ccccc3N2S(=O)(=O)c2ccc(I)cc2)cc1
160	CC(=O)Nc1ccc(OCCOc2ncc(Cl)cn2)cc1
87	BrCc1cc(-c2ccccc2)no1
57 to 60	Cc1cc(OCc2ccccc2)nc(S(C)(=O)=O)n1
148 to 150	O=C(O)C(Cc1ccccc1)c1ccc2ccn(Cc3ccccc3)c2c1 (stereo not given)
123 to 125	Cc1ccc(-c2nc(Sc3ccc(Cl)cc3)cc(N3CCN(CCO)CC3)n2)cc1
> 300	O=c1c(O)nc2cccnc2n1-c1ccc(Cl)cc1
87 to 88	COC(=O)CCc1cn(Cc2ccc(O)cc2)nc1-c1ccccc1
123 to 125	CCOC(=O)C(Cc1ccc(C(C(N)=O)C(C)c2ccccc2N2CCCCC2)cc1)C(=O)OCC (stereo not given)
136 to 138	COC(=O)CC1NC(=O)c2ccccc21 (stereo not given)
140 to 142	COC(=O)c1ccccc1NC(=O)CNc1ccccc1
130 to 140	CN1C(=O)CC[C@]2(C)c3ccc(-c4cc(F)c([N+](=O)[O-])cc4F)cc3CC[C@@H]12
116	CCCOc1ccccc1-c1nc(O)cc(Cl)n1
81 to 85	c1ccc2c(c1)ccn2Nc1ccncn1
66	S=C=NCc1cc(-c2ccccc2)no1

melting point [°C]	SMILES
163 to 164	COc1ccccc(NS(=O)(=O)c2ccc(C)cc2)c1=O
341 to 342	O=C(O)c1cc(F)ccc1Nc1ccnc2cc(Cl)ccc12
186	CCN(CC)CCc1cccc(N2C(=O)N(c3ccc(Cl)cc3Cl)Cc3cnc(Nc4ccccc4)nc32)c1
136 to 139	CCc1n[nH]c(=O)n1CCOc1ccccc1
182	COC(=O)N1CCCCc2cc(C3=NNC(=O)SC3C)ccc21 (stereo not given)
185 to 188	Cn1c(-c2ccc(Br)cc2)cnc1[C@H](Cc1ccccn1)N(C=O)c1cc2cc(Cl)ccc2o1
165 to 167	O=C(OC1Oc2ccccc2-n2cnc(-c3noc(C4CC4)n3)c21)c1ccccc1 (stereo not given)
175 to 177	O=C(c1ccc(-n2ccnc2)cc1)N1CCN(S(=O)(=O)c2cc3cc(Cl)ccc3o2)CC1
172 to 173	CCC(=O)N(CC)c1cccc(-c2ccc3nnc(NC)n3n2)c1
142 to 146	CS(=O)(=O)Nc1cccc(Nc2nc(NC3CCC3)c3nc[nH]c3n2)c1
148 to 150	CC(C)CNc1c(N)c2nnnn2c2ccccc12
101 to 102	O=C1C[C@@H]2[C@@H](/C=C/[C@@H](O)COc3cccc(Cl)c3)[C@H](OC(=O)c3ccccc3)C[C@@H]2O1
258 to 261	O=C1C2=C(CCCC2)C(=O)C1=C1C=CNC=C1
217 to 219	c1ccc2c(c1)CCCc1c-2n[nH]c1-c1ccncc1
141 to 142	CC/C(=C(\c1ccc(/C=C/C(=O)O)cc1)c1ccc(OC(=O)c2ccno2)cc1)c1ccccc1
257 to 258	CN(c1ccc(C(=O)O)cc1)c1cc2c3c(c1)CCCC3(C)CCC2
146	CCNC(=O)c1ccc(-n2nnc(C(=O)NC3CC3)c2COCc2ccccc2)c(O)c1
161 to 163	N=C(Nc1ccc(NC(=O)CNCc2ccccc2)cc1)c1cccs1
212 to 214	COC(=O)c1cc(C(=O)OC)n(C(c2ccccc2)(c2ccccc2)c2ccccc2)n1
243	CC(C)(O)C#Cc1ccc2c(c1)NC(=O)CC(c1cccc(C#N)c1)=N2
107 to 109	COc1ccc(-c2ncc(Cc3ccccc3)nc2-c2ccc(OC)cc2)cc1

Continued, compound first:

SMILES	melting point [°C]
CC(C)C1(C)NC(c2ccc(CO)cn2)=NC1=O (stereo not given)	101 to 104
COc1cccc(C=CC(=O)NC2CCNC(=O)C2)c1OC (stereo not given)	164 to 166
CN1Cc2c(C#CC(C)(C)O)ncn2-c2cccc(Cl)c2C1=O	194 to 195
CC1CC2C3CC(Cl)C4=CC(=O)C=CC4(C)C3C(O)CC2(C)C1C(=O)CO (stereo not given)	128
CC#Cc1cnc(OC)nc1	88 to 89.5
CCC(=O)N=c1sc2cccc(C)c2n1N	175 to 176
O=C1[C@@H]2[C@H](O)CCN2C(=O)N1c1ccc([N+](=O)[O-])c2ccccc12 (relative stereo)	255 to 257
NC(=S)c1cnn(-c2c(Cl)cc(C(F)(F)F)cc2Cl)n1	214 to 218
O=C(Nc1ccnn1-c1c(Cl)cc(C(F)(F)F)c(Cl)c1Cl)C(Cl)Cl	156 to 161
CN1C(=O)C2(COc3cc4c(cc32)OCCO4)c2c(C#N)cccc21 (stereo not given)	196 to 197
CCOP(=O)(CNc1cc(Oc2ccc(C(F)(F)F)cn2)ccc1[N+](=O)[O-])OCC	74 to 76
C=CCN1CCN(c2cc3c(cc2F)c(=O)c(C(=O)O)cn3CC)CC1	236
O=C(NC1CC1)C(Cl)Cl	130 to 132
O=C(c1cc(O)c(O)cc1[N+](=O)[O-])N1CCC(N2CCCCC2)CC1	290
COCCOc1ccc(CCCOC(=O)NS(=O)(=O)NCCc2ccccn2)c(Oc2ncc(C(F)(F)F)cc2Cl)c1	91 to 93
COC(=O)/C=C(\CCCCc1ccccc1)Sc1ccc(OC)c(OC)c1	53 to 55
CC(=O)CN1CCc2c(c(=O)oc3cc(C)c(Cl)cc23)C1	172 to 175
Cc1cc(CN(C(=O)CCl)c2c(C)cccc2C)on1	78 to 82
Nc1cc(F)c(F)c(Cl)c1Cl	94 to 97.5
CCCCc1nc2c(N)nc3ccc(OCCC4CCN(C(=O)C(C)C)CC4)cc3c2n1C	189 to 193
NCC1(O)CCCc2c1ccc1c2OCO1 (stereo not given)	140 to 142

SMILES	melting point [°C]
COc1ccc(S(N)(=O)=O)cc1C(C)O (stereo not given)	165 to 166
CC(C)(NC(=O)c1cc2c(n(CC3CCCCC3)c1=O)CCCCCC2)C(=O)O	177 to 180
CCCN(CCC)C1CCc2cc(NC(=O)C=NO)ccc2C1 (stereo not given)	110 to 112
O=C(O)c1cc2cc(F)c(F)cc2o1	270
CCCCCCCCCCN(OCc1ccccc1)C(=O)Nc1c(C(C)C)cccc1C(C)C	91 to 93
COc1ccc(CCNC(=O)CNc2ccc(C)cc2)cc1OC	87 to 88.5
O=c1oc(-c2cccc(C(F)(F)F)c2)ns1	85 to 86.5
CCCCCCCCCCCCCC=Cc1cc(C(=O)O)c[nH]1	90 to 96
COc1ccc(C2NC(=O)C2OC(C)=O)cc1 (stereo not given)	110 to 111
CCOC(=O)C(Cc1cnc2ccc(OC)cc2c1)NC(=O)OC(C)(C)C (stereo not given)	127
COc1ccc2c(c1)N(CCCN1CCC(CCO)CC1)c1cccc(S(C)(=O)=O)c1S2	117 to 118
Nc1ncc(CCC2CCCC2)s1	77 to 78
Cc1c(CN2CCN(c3cccc(C(F)(F)F)c3)CC2)cc(-c2ccc(Cl)cc2)n1-c1ccc(Cl)cc1	165 to 167
O=C(C1CC1)C(C(O)C(Cl)(Cl)Cl)n1cncn1 (stereo not given)	173 to 175
CCCCCCCN(CC)C(=O)CCC(=O)c1ccc(NS(C)(=O)=O)cc1	100 to 102
CC(C)CN1CCC(CNC(=O)c2cc(Cl)c(N)[nH]c2=O)CC1	128 to 133
CCOC(=O)NC(=O)CC(=O)NC(=O)OCC	177 to 178
CC(C)(C)OC(=O)N1CCC(NC(=O)Nc2ccc(OC(F)(F)F)cc2)CC1	160 to 162
C=CCNc1nc(C2C(=O)Nc3ccc(Br)cc32)c2cn(CCC)nc2n1 (stereo not given)	322 to 326
CCCCOc1ccc(C(=O)c2ccc(OCCBr)cc2)cc1	107 to 108
CCN(CC)C(=O)CN1C(=O)C(NC(=O)Nc2ccccc2Cl)N=C(c2ccccc2)c2ccccc21 (stereo not given)	173 to 175

SMILES	melting point [°C]
Cc1cc(F)ccc1CCC(=O)O	112 to 113
CCCOc1ccc(/C=C/C(=O)OC(C)(C)C)cc1-c1nc2c(CCC)nn(C)c2c(=O)[nH]1	167 to 168
CCCOC(OCCC)P(=O)(O)CCCN	223 to 225
CC(C)(C)OC(=O)NC(C(=O)O)c1ccc(O)cc1 (stereo not given)	112 to 114
CCC(C(=O)O)c1cccc(C(=O)c2cc3cc(C(=O)O)sc3s2)c1 (stereo not given)	240
COC(=O)CC1CC(c2ccc(Cl)nc2)=NO1 (stereo not given)	94 to 96
CN(C)C1CCN(c2nc(N3CCOCC3)c3ncnc(NCCCc4ccccc4)c3n2)CC1	82 to 84
COc1ccc(NC(=O)Nc2ccc(Cl)c(Cl)c2)cc1NC(=S)Nc1cc(Cl)cc(Cl)c1	202
CC(C)C1(C)N=C(c2c(C(=O)O)ccc3c2nnn3C)NC1=O (stereo not given)	250 to 254
CCCCCNc1cccc(C(=O)O)c1C(=O)O	236 to 238
CCCCCCCCc1c(N)nc(-n2cncn2)nc1CC	90 to 91
CC(C)(C)OC(=O)NCCc1cccc(C#N)n1	79.1 to 80.3
O=[N+]([O-])c1ccc(-n2nnnc2Cl)cc1	96.5
O=C(c1ccc([N+](=O)[O-])cc1)N1CCOCC1	90 to 91
NC(=O)CCCOc1ccc(C23CC4CC(CC(C4)C2)C3)cc1	176 to 177
CNc1c(N)c(C)nn1C	87
Cc1noc(NS(=O)(=O)c2cccc(Cl)c2)c1Br	132 to 134
CC(C)(C)c1cc(C=C2NC(=O)NC2=O)cc(C(C)(C)C)c1O	251 to 252
Cc1cc(-c2nnn(C)n2)cc(C)c1OCCCC(N)=O	155 to 156
CCCCCC1(C(=O)Oc2ccc(C(=O)O)cc2)CC2=C(C1)C(C)(C)CCC2(C)C	156 to 158
CCC(CC)c1ccc(Cl)c2nc3n(c12)CCCCN3c1ccc(N(C)C)cc1OC(F)(F)F	158 to 159
